Measured values published in patent US6677460B1, “Aromatic carboxylic acid bicyclic sulfur compounds” (Idemitsu Kosan Company, Limited, priority 1993, dated 2004).

Legend:
barnyard grass [1] = assay: Foliar treatment test (2); format: in vivo; conditions: 20th day after treatment; further: ranges in brackets are in %
Method: (§1) 90 Parts by weight of the above carrier and 10 parts by weight of each of Compounds obtained in the above Preparation Examples were uniformly pulverized and mixed to obtain herbicides. Further, for Herbicide Comparative Examples, comparative herbicides were prepared by uniformly pulverizing and mixing 90 parts by weight of the above carrier and 10 parts by weight of each of the following Compounds x, y, A, B and C.
(§2) (2) Biological Test (Foliar Treatment Test, Herbicide Examples 1 and 2 and Herbicide Comparative Examples 1 and 2)
(§3) Seeds of weeds such as large crabgrass, barnyard grass, green foxtail, cocklebur, velvetleaf and slender amaranth and seeds of corn, wheat and barley were sown in 1/5,000-are Wagner pots filled with upland soil, and covered with upland soil. The seeds were grown in a greenhouse, and at the stage of 1˜2 leaves of these plants, a predetermined amount of the herbicide prepared in the above (1) was suspended in water and uniformly sprayed onto leaf and stalk portions at a rate of 200 liter/10 are. Thereafter, the plants were grown in the greenhouse, and on 20th day after the treatment, the herbicide was evaluated for herbicidal efficacy.
(§4) The herbicidal efficacy and phytotoxcity to crops were shown on the basis of the following ratings.
(§5) The ratio of remaining plant weight to non-treated was determined on the basis of the ratio of remaining plant weight to non-treated=(remaining plant weight in treated plot/remaining plant weight in non-treated plot)×100. This is also applicable to biological tests hereinafter.

cocklebur [2] = assay: Foliar treatment test (2); format: in vivo; conditions: 20th day after treatment; further: ranges in brackets are in %
Method: as §1, §2, §3, §4, §5

green foxtail [3] = assay: Foliar treatment test (2); format: in vivo; conditions: 20th day after treatment; further: ranges in brackets are in %
Method: as §1, §2, §3, §4, §5

large crabgrass [4] = assay: Foliar treatment test (2); format: in vivo; conditions: 20th day after treatment; further: ranges in brackets are in %
Method: as §1, §2, §3, §4, §5

slender amaranth [5] = assay: Foliar treatment test (2); format: in vivo; conditions: 20th day after treatment; further: ranges in brackets are in %
Method: as §1, §2, §3, §4, §5

velvetleaf [6] = assay: Foliar treatment test (2); format: in vivo; conditions: 20th day after treatment; further: ranges in brackets are in %
Method: as §1, §2, §3, §4, §5

barnyard grass [7] = assay: Upland soil treatment test (3); format: in vivo; conditions: 20th day after treatment; further: ranges in brackets are in %
Method: as §1
(§6) (3) Biological Test (Upland Soil Treatment Test, Herbicide Examples 3 and 4 and Herbicide Comparative Examples 3 and 4)
(§7) Seeds of weeds such as large crabgrass, barnyardgrass, green foxtail, cocklebur, velvetleaf and slender amaranth and seeds of corn, wheat and barley were sown in 1/5,000-are Wagner pots filled with upland soil, and covered with upland soil. Then, a predetermined amount of the herbicide prepared in the above (1) was suspended in water and uniformly sprayed onto the soil surface. Thereafter, the plants were grown in the greenhouse, and on 20th day after the treatment, the herbicide was evaluated for herbicidal efficacy.
(§8) The herbicidal efficacy and the phytotoxicity to crops are shown on the basis of the ratings described in (2) Foliar treatment test.

cocklebur [8] = assay: Upland soil treatment test (3); format: in vivo; conditions: 20th day after treatment; further: ranges in brackets are in %
Method: as §1, §6, §7, §8

green foxtail [9] = assay: Upland soil treatment test (3); format: in vivo; conditions: 20th day after treatment; further: ranges in brackets are in %
Method: as §1, §6, §7, §8

large crabgrass [10] = assay: Upland soil treatment test (3); format: in vivo; conditions: 20th day after treatment; further: ranges in brackets are in %
Method: as §1, §6, §7, §8

slender amaranth [11] = assay: Upland soil treatment test (3); format: in vivo; conditions: 20th day after treatment; further: ranges in brackets are in %
Method: as §1, §6, §7, §8

velvetleaf [12] = assay: Upland soil treatment test (3); format: in vivo; conditions: 20th day after treatment; further: ranges in brackets are in %
Method: as §1, §6, §7, §8

barnyard grass [13] = assay: Upland soil treatment test (5); format: in vivo; conditions: dosage 100 g a.i./hectare, 20th day after treatment; further: ranges in brackets are in %
Method: as §1
(§9) (5) Biological Test (Upland Soil Treatment Test, Herbicide Examples 10-26 and Comparative Example 9)
(§10) Seeds of weeds such as large crabgrass, barnyard grass, green foxtail, cocklebur, velvetleaf and slender amaranth and seeds of corn, wheat and barley were sown in 1/5,000-are Wagner pots filled with upland soil, and covered with upland soil. Then, a predetermined amount of the herbicide prepared in the above (1) was suspended in water and uniformly sprayed onto the soil surface. Thereafter, the plants were grown in the greenhouse, and on 20th day after the treatment, the herbicide was evaluated for herbicidal efficacy.
(§11) The dosage of each herbicide is indicated as an amount of the active ingredient per hectare. Further, air-dried weight were measured, and herbicidal efficacy and the pytotoxicity to corn are shown on the basis of the ratings described below.

cocklebur [14] = assay: Upland soil treatment test (5); format: in vivo; conditions: dosage 100 g a.i./hectare, 20th day after treatment; further: ranges in brackets are in %
Method: as §1, §9, §10, §11

green foxtail [15] = assay: Upland soil treatment test (5); format: in vivo; conditions: dosage 100 g a.i./hectare, 20th day after treatment; further: ranges in brackets are in %
Method: as §1, §9, §10, §11

large crabgrass [16] = assay: Upland soil treatment test (5); format: in vivo; conditions: dosage 100 g a.i./hectare, 20th day after treatment; further: ranges in brackets are in %
Method: as §1, §9, §10, §11

slender amaranth [17] = assay: Upland soil treatment test (5); format: in vivo; conditions: dosage 100 g a.i./hectare, 20th day after treatment; further: ranges in brackets are in %
Method: as §1, §9, §10, §11

velvetleaf [18] = assay: Upland soil treatment test (5); format: in vivo; conditions: dosage 100 g a.i./hectare, 20th day after treatment; further: ranges in brackets are in %
Method: as §1, §9, §10, §11

corn = assay: Upland soil treatment test (5), phytotoxicity; format: in vivo; conditions: dosage 100 g a.i./hectare, 20th day after treatment
Method: as §1, §9, §10, §11

CCn1ncc(C(=O)c2cc(C)c3c(c2C)C(C)(C)CCS3(=O)=O)c1O [Compound 1, 4,4,5,8-tetramethyl-6-(1-ethyl-5-hydroxypyrazol-4-yl)carbonyl-thiochroman-1,1-dioxide]
Herbicidal Efficacy barnyard grass (barnyard grass [1]; dosage 3 g a.i./are): 5 (0) | Herbicidal Efficacy barnyard grass (barnyard grass [1]; dosage 10 g a.i./are): 5 (0) | Herbicidal Efficacy cocklebur (cocklebur [2]; dosage 3 g a.i./are): 5 (0) | Herbicidal Efficacy cocklebur (cocklebur [2]; dosage 10 g a.i./are): 5 (0) | Herbicidal Efficacy green foxtail (green foxtail [3]; dosage 3 g a.i./are): 5 (0) | Herbicidal Efficacy green foxtail (green foxtail [3]; dosage 10 g a.i./are): 5 (0) | Herbicidal Efficacy large crabgrass (large crabgrass [4]; dosage 3 g a.i./are): 5 (0) | Herbicidal Efficacy large crabgrass (large crabgrass [4]; dosage 10 g a.i./are): 5 (0) | Herbicidal Efficacy slender amaranth (slender amaranth [5]; dosage 3 g a.i./are): 5 (0) | Herbicidal Efficacy slender amaranth (slender amaranth [5]; dosage 10 g a.i./are): 5 (0) | Herbicidal Efficacy velvetleaf (velvetleaf [6]; dosage 3 g a.i./are): 5 (0) | Herbicidal Efficacy velvetleaf (velvetleaf [6]; dosage 10 g a.i./are): 5 (0) | Herbicidal Efficacy barnyard grass (barnyard grass [7]; dosage 3 g a.i./are): 5 (0) | Herbicidal Efficacy barnyard grass (barnyard grass [7]; dosage 10 g a.i./are): 5 (0) | Herbicidal Efficacy cocklebur (cocklebur [8]; dosage 3 g a.i./are): 5 (0) | Herbicidal Efficacy cocklebur (cocklebur [8]; dosage 10 g a.i./are): 5 (0) | Herbicidal Efficacy green foxtail (green foxtail [9]; dosage 3 g a.i./are): 5 (0) | Herbicidal Efficacy green foxtail (green foxtail [9]; dosage 10 g a.i./are): 5 (0) | Herbicidal Efficacy large crabgrass (large crabgrass [10]; dosage 3 g a.i./are): 5 (0) | Herbicidal Efficacy large crabgrass (large crabgrass [10]; dosage 10 g a.i./are): 5 (0) | Herbicidal Efficacy slender amaranth (slender amaranth [11]; dosage 3 g a.i./are): 5 (0) | Herbicidal Efficacy slender amaranth (slender amaranth [11]; dosage 10 g a.i./are): 5 (0) | Herbicidal Efficacy velvetleaf (velvetleaf [12]; dosage 3 g a.i./are): 5 (0) | Herbicidal Efficacy velvetleaf (velvetleaf [12]; dosage 10 g a.i./are): 5 (0) | Herbicidal Efficacy barnyard grass (barnyard grass [13]): 5 (0) | Herbicidal Efficacy cocklebur (cocklebur [14]): 5 (0) | Herbicidal Efficacy green foxtail (green foxtail [15]): 5 (0) | Herbicidal Efficacy large crabgrass (large crabgrass [16]): 5 (0) | Herbicidal Efficacy slender amaranth (slender amaranth [17]): 5 (0) | Herbicidal Efficacy velvetleaf (velvetleaf [18]): 5 (0) | Phyto-toxicity to corn (corn): 0 (100) | melting point: 208.8 to 209.3 °C

CCn1ncc(C(=O)c2ccc3c(c2C)C(C)(C)CCS3)c1O [Compound 2]
Herbicidal Efficacy barnyard grass (barnyard grass [1]; dosage 3 g a.i./are): 4 (1-20) | Herbicidal Efficacy barnyard grass (barnyard grass [1]; dosage 10 g a.i./are): 5 (0) | Herbicidal Efficacy cocklebur (cocklebur [2]; dosage 3 g a.i./are): 5 (0) | Herbicidal Efficacy cocklebur (cocklebur [2]; dosage 10 g a.i./are): 5 (0) | Herbicidal Efficacy green foxtail (green foxtail [3]; dosage 3 g a.i./are): 3 (21-40) | Herbicidal Efficacy green foxtail (green foxtail [3]; dosage 10 g a.i./are): 5 (0) | Herbicidal Efficacy large crabgrass (large crabgrass [4]; dosage 3 g a.i./are): 5 (0) | Herbicidal Efficacy large crabgrass (large crabgrass [4]; dosage 10 g a.i./are): 5 (0) | Herbicidal Efficacy slender amaranth (slender amaranth [5]; dosage 3 g a.i./are): 3 (21-40) | Herbicidal Efficacy slender amaranth (slender amaranth [5]; dosage 10 g a.i./are): 5 (0) | Herbicidal Efficacy velvetleaf (velvetleaf [6]; dosage 3 g a.i./are): 4 (1-20) | Herbicidal Efficacy velvetleaf (velvetleaf [6]; dosage 10 g a.i./are): 5 (0) | Herbicidal Efficacy barnyard grass (barnyard grass [7]; dosage 3 g a.i./are): 5 (0) | Herbicidal Efficacy barnyard grass (barnyard grass [7]; dosage 10 g a.i./are): 5 (0) | Herbicidal Efficacy cocklebur (cocklebur [8]; dosage 3 g a.i./are): 5 (0) | Herbicidal Efficacy cocklebur (cocklebur [8]; dosage 10 g a.i./are): 5 (0) | Herbicidal Efficacy green foxtail (green foxtail [9]; dosage 3 g a.i./are): 5 (0) | Herbicidal Efficacy green foxtail (green foxtail [9]; dosage 10 g a.i./are): 5 (0) | Herbicidal Efficacy large crabgrass (large crabgrass [10]; dosage 3 g a.i./are): 5 (0) | Herbicidal Efficacy large crabgrass (large crabgrass [10]; dosage 10 g a.i./are): 5 (0) | Herbicidal Efficacy slender amaranth (slender amaranth [11]; dosage 3 g a.i./are): 5 (0) | Herbicidal Efficacy slender amaranth (slender amaranth [11]; dosage 10 g a.i./are): 5 (0) | Herbicidal Efficacy velvetleaf (velvetleaf [12]; dosage 3 g a.i./are): 5 (0) | Herbicidal Efficacy velvetleaf (velvetleaf [12]; dosage 10 g a.i./are): 5 (0) | Herbicidal Efficacy barnyard grass (barnyard grass [13]): 5 (0) | Herbicidal Efficacy cocklebur (cocklebur [14]): 5 (0) | Herbicidal Efficacy green foxtail (green foxtail [15]): 5 (0) | Herbicidal Efficacy large crabgrass (large crabgrass [16]): 5 (0) | Herbicidal Efficacy slender amaranth (slender amaranth [17]): 5 (0) | Herbicidal Efficacy velvetleaf (velvetleaf [18]): 5 (0) | Phyto-toxicity to corn (corn): 0 (100)
